This is an account of results in ChEMBL document CHEMBL1141412, “Search for cell motility and angiogenesis inhibitors with potential anticancer activity: beauvericin and other constituents of two endophytic strains of Fusarium oxysporum” (J Nat Prod, 2007).

Molecules are shown by their SMILES. Calls of active or inactive are those of the source. No cut-off for these calls is given here.

Data set [1] concerns MIA PaCa-2. Nature of the data set: Cytotoxicity against human MIAPaCa2 cells at 2 ug/mL after 72 hrs by MTT assay. The format is cell-based. The following applies: mia paca-2, 72 h.
In data set [2] the test system is MCF7. The experiment in a line: Cytotoxicity against human MCF7 cells at 2 ug/mL after 72 hrs by MTT assay. The format is cell-based. The following applies: mcf7, 72 h.
Data set [3] has as its system MCF7. The experiment in a line: Cytotoxicity against human MCF7 cells at 4 ug/mL after 72 hrs by MTT assay. It counts as cell-based. Conditions: mcf7, 72 h.
Data set [4] deals with MIA PaCa-2. Nature of the data set: Cytotoxicity against human MIAPaCa2 cells at 4 ug/mL after 72 hrs by MTT assay. The format is cell-based. Conditions: mia paca-2, 72 h.
For data set [5], the system named is SF-268. The experiment in a line: Cytotoxicity against human SF268 cells at 2 ug/mL after 72 hrs by MTT assay. The format is functional, cell-based.
In data set [6] the test system is NCI-H460. Nature of the data set: Cytotoxicity against human NCI-H460 cells at 2 ug/mL after 72 hrs by MTT assay. Conditions: nci-h460, 72 h. The format is cell-based.
The subject of data set [7] is SF-268. The experiment in a line: Cytotoxicity against human SF268 cells at 4 ug/mL after 72 hrs by MTT assay. It counts as functional, cell-based.
Data set [8] has as its system NCI-H460. The experiment in a line: Cytotoxicity against human NCI-H460 cells at 4 ug/mL after 72 hrs by MTT assay. It counts as cell-based. The following applies: nci-h460, 72 h.
Data set [9] deals with SF-268. The experiment in a line: Cytotoxicity against human SF268 cells after 72 hrs by MTT assay. The following applies: SF-268, 72 h. It counts as functional, cell-based.
Data set [10] deals with MIA PaCa-2. The experiment in a line: Cytotoxicity against human MIAPaCa2 cells after 72 hrs by MTT assay. It counts as cell-based. The following applies: MIA PaCa-2, 72 h.
Data set [11] concerns NCI-H460. Nature of the data set: Cytotoxicity against human NCI-H460 cells after 72 hrs by MTT assay. The format is cell-based. Conditions: NCI-H460, 72 h.
Data set [12] has as its system MCF7. Nature of the data set: Cytotoxicity against human MCF7 cells after 72 hrs by MTT assay. The format is cell-based. Conditions: MCF7, 72 h.
A further data set concerns MDA-MB-231. The experiment in a line: Inhibition of cell proliferation in MDA-MB-231 cells after 40 hrs by MTT assay. The format is functional, cell-based. The following applies: Homo sapiens, MDA-MB-231, 40 h.
Data set [13] is described as follows: Antiangiogenic activity in HUVEC-2 cells assessed as inhibition of endothelial cell network formation after 16 hrs. It counts as functional, cell-based. Conditions: Homo sapiens.
A further data set has as its system HUVEC. Nature of the data set: Antiangiogenic activity in HUVEC-2 cells assessed as inhibition of endothelial cell network formation after 16 hrs at 3 uM. Conditions: Homo sapiens. The format is functional, cell-based.
Data set [14] can be described thus: Inhibition of cell proliferation in PC3M cells after 20 hrs by MTT assay. It counts as functional, cell-based. Conditions: Homo sapiens, PC-3M.

For the molecule `COC1=CC(=O)c2c(cc3oc4cc(OC)cc(C)c4c(=O)c3c2O)C1=O`, the Activity entry in the data set with MIA PaCa-2 [1], with MCF7 [2], in the data set with MCF7 [3], in the data set with MIA PaCa-2 [4], in the data set on NCI-H460 [6] and with NCI-H460 [8] was “Not Active” in each case. In addition, the outcome in the data set with SF-268 [5] and in the data set with SF-268 [7] was inactive.
Regarding `COc1cccc2c1C(=O)c1c(O)c3c(c(O)c1C2=O)C[C@@](O)(C(=O)CO)C[C@@H]3O[C@H]1C[C@H](N)[C@H](O)[C@H](C)O1` [DOXORUBICIN], the IC50 worked out at 40 nM in the data set with SF-268 [9], 50 nM in the data set on MIA PaCa-2 [10] and 10 nM in the data set on NCI-H460 [11].
With `COC1=CC(=O)c2c(c(O)c3oc4cc(OC)cc(C)c4c(=O)c3c2O)C1=O` [BIKAVERIN], the IC50 in the data set with SF-268 [9] amounted to 380 nM; in the data set with MIA PaCa-2 [10] it was 260 nM; with MCF7 [12], 420 nM; in the data set on NCI-H460 [11] it was 430 nM.
Take `CC(C)[C@@H]1OC(=O)[C@@H](Cc2ccccc2)N(C)C(=O)[C@H](C(C)C)OC(=O)[C@@H](Cc2ccccc2)N(C)C(=O)[C@H](C(C)C)OC(=O)[C@@H](Cc2ccccc2)N(C)C1=O` [BEAUVERICIN]: the IC25 in the data set with MDA-MB-231 came to 6400 nM; in data set [13] it was 5000 nM; in [14], 2300 nM. Moreover, the IC50 in the data set with MDA-MB-231 is 7500 nM; in the data set on SF-268 [9], 2290 nM; in the data set with MIA PaCa-2 [10] it was 1660 nM; in the data set with MCF7 [12], 1810 nM; in data set [13], 7500 nM; with NCI-H460 [11] it was 1410 nM. This molecule also displayed a half-maximal inhibitory concentration (IC50) in [14] of 3800 nM. The outcome with HUVEC was Active.
